Paper PMC10999543, “Identification of kinase modulators as host-directed therapeutics against intracellular methicillin-resistant Staphylococcus aureus” (Frontiers in Cellular and Infection Microbiology, 2024)
Like-named read-outs stand apart in the source and are kept apart here.

Key:
HeLa cells = experiment: Compound screen by flow cytometry: HeLa cell count as surrogate readout of cell viability (z-scoreHeLa); format: cell-based, human; further: test concentration or dose not given here
How it was run: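 The viability surrogate was the count of fixed HeLa cells by flow cytometry, converted to z-scores against DMSO controls with values deviating two-fold excluded. Before counting, cells had been infected with MRSA for 1 h and cleared of extracellular bacteria with gentamicin. They were then exposed overnight to kinase inhibitors in triplicate.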

intracellular MRSA = format: cell-based, Staphylococcus aureus; conditions: for %GFP+ rep 1 / z-scoreMRSA+ rep 1: replicate 1; for %GFP+ rep 2 / z-scoreMRSA+ rep 2: replicate 2; for %GFP+ rep 3 / z-scoreMRSA+ rep 3: replicate 3; for z-scoreMRSA+ mean: mean of 3 replicates; on %GFP+ rep 1: test concentration or dose not given here; on %GFP+ rep 2: test concentration or dose not given here; on %GFP+ rep 3: test concentration or dose not given here; on effect: test concentration or dose not given here; on z-scoreMRSA+ mean: test concentration or dose not given here; on z-scoreMRSA+ rep 1: test concentration or dose not given here; on z-scoreMRSA+ rep 2: test concentration or dose not given here; on z-scoreMRSA+ rep 3: test concentration or dose not given here
How it was run: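 Values are z-scores: GFP-positive HeLa percentage and event count per well against plate statistics, minus the mean DMSO z-score. Wells deviating two-fold from controls were left out of plate means. Infection was at a mean MOI of 6.8, with an overnight compound exposure.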

[1] = PKIS compound screen raw data, HeLa cell count, replicate 1
[2] = PKIS compound screen raw data, HeLa cell count, replicate 2
[3] = PKIS compound screen raw data, HeLa cell count, replicate 3
[4] = PKIS compound screen, Yes/No call
[5] = PKIS compound screen, mean of 3 replicates
[6] = PKIS compound screen, replicate 1
[7] = PKIS compound screen, replicate 2
[8] = PKIS compound screen, replicate 3
[9] = PKIS compounds raw data, replicate 1, HeLa cell count
[10] = PKIS compounds raw data, replicate 2, HeLa cell count
[11] = PKIS compounds raw data, replicate 3, HeLa cell count
[12] = PKIS compound screen raw data, MRSA-infected HeLa cells
[13] = PKIS compound screen, MRSA-infected HeLa cells
[14] = PKIS compound screen, Yes/No call (effect without cell death)
[15] = PKIS compounds raw data, MRSA-infected HeLa cells
[16] = compound screen, HeLa cell count, mean of 3 replicates
[17] = compound screen, HeLa cell count, replicate 1
[18] = compound screen, HeLa cell count, replicate 2
[19] = compound screen, HeLa cell count, replicate 3
[20] = Yes/No: effect without cell death
[21] = compound screen, MRSA-infected HeLa cells

SMILES: Cc1ccc(NC(=O)c2ccnc(N3CCN(C)CC3)c2)cc1-c1ccc(C(=O)NCC2CC2)cc1 [GW775604X]
- cell count rep 1 (HeLa cells; [1]): 20638
- cell count rep 2 (HeLa cells; [2]): 17919
- cell count rep 3 (HeLa cells; [3]): 18503
- z-scoreHeLa mean (HeLa cells; PKIS compound screen, HeLa cell count, mean of 3 replicates): -0.99
- z-scoreHeLa rep 1 (HeLa cells; PKIS compound screen, HeLa cell count, replicate 1): -1.62
- z-scoreHeLa rep 2 (HeLa cells; PKIS compound screen, HeLa cell count, replicate 2): -1.26
- z-scoreHeLa rep 3 (HeLa cells; PKIS compound screen, HeLa cell count, replicate 3): -0.08
- cell death (HeLa cells; [4]): No
- cell death (HeLa cells; PKIS compound screen, Yes/No call on z-scoreHeLa): No
- z-scoreHeLa mean (HeLa cells; [5]): 0.09
- z-scoreHeLa rep 1 (HeLa cells; [6]): -0.44
- z-scoreHeLa rep 2 (HeLa cells; [7]): 1.03
- z-scoreHeLa rep 3 (HeLa cells; [8]): -0.32
- cell count rep 1 (HeLa cells; [9]): 5307
- cell count rep 2 (HeLa cells; [10]): 7562
- cell count rep 3 (HeLa cells; [11]): 5095
- %GFP+ rep 1 (intracellular MRSA; [12]): 22.9%
- %GFP+ rep 2 (intracellular MRSA; [12]): 25.3%
- %GFP+ rep 3 (intracellular MRSA; [12]): 27.3%
- z-scoreMRSA+ mean (intracellular MRSA; [13]): 1.46
- z-scoreMRSA+ rep 1 (intracellular MRSA; [13]): 1.10
- z-scoreMRSA+ rep 2 (intracellular MRSA; [13]): 1.61
- z-scoreMRSA+ rep 3 (intracellular MRSA; [13]): 1.66
- effect (intracellular MRSA; [4]): No
- hit (intracellular MRSA; [14]): No
- effect (intracellular MRSA; PKIS compound screen, Yes/No call on z-scoreMRSA+): No
- z-scoreMRSA+ mean (intracellular MRSA; PKIS compound screen): -0.35
- z-scoreMRSA+ rep 1 (intracellular MRSA; PKIS compound screen): -0.34
- z-scoreMRSA+ rep 2 (intracellular MRSA; PKIS compound screen): -0.43
- z-scoreMRSA+ rep 3 (intracellular MRSA; PKIS compound screen): -0.27
- %GFP+ rep 1 (intracellular MRSA; [15]): 25.3%
- %GFP+ rep 2 (intracellular MRSA; [15]): 23.8%
- %GFP+ rep 3 (intracellular MRSA; [15]): 25.8%

SMILES: Cc1ccnc2ccc(-c3sc(N)nc3-c3ccccn3)nc12 [GW777257X]
- cell count rep 1 (HeLa cells; [1]): 3590
- cell count rep 2 (HeLa cells; [2]): 3185
- cell count rep 3 (HeLa cells; [3]): 3623
- cell death (HeLa cells; Yes/No call from z-scoreHeLa): No
- z-scoreHeLa mean (HeLa cells; [16]): -0.81
- z-scoreHeLa rep 1 (HeLa cells; [17]): -0.55
- z-scoreHeLa rep 2 (HeLa cells; [18]): -0.86
- z-scoreHeLa rep 3 (HeLa cells; [19]): -1.02
- %GFP+ rep 1 (intracellular MRSA; [12]): 20.9%
- %GFP+ rep 2 (intracellular MRSA; [12]): 19.0%
- %GFP+ rep 3 (intracellular MRSA; [12]): 19.9%
- effect (intracellular MRSA; Yes/No call from z-scoreMRSA+): No
- hit (intracellular MRSA; [20]): No
- z-scoreMRSA+ mean (intracellular MRSA; [21]): -0.86
- z-scoreMRSA+ rep 1 (intracellular MRSA; [21]): -1.02
- z-scoreMRSA+ rep 2 (intracellular MRSA; [21]): -0.88
- z-scoreMRSA+ rep 3 (intracellular MRSA; [21]): -0.69

SMILES: Clc1ccc(CNc2nccc(-c3cnn4ncccc34)n2)cc1 [GW781673X]
- cell count rep 1 (HeLa cells; [9]): 3767
- cell count rep 2 (HeLa cells; [10]): 3267
- cell count rep 3 (HeLa cells; [11]): 5990
- cell death (HeLa cells; Yes/No call from z-scoreHeLa): No
- z-scoreHeLa mean (HeLa cells; human): -0.71
- z-scoreHeLa rep 1 (HeLa cells; human): -0.91
- z-scoreHeLa rep 2 (HeLa cells; human): -0.76
- z-scoreHeLa rep 3 (HeLa cells; human): -0.46
- %GFP+ rep 1 (intracellular MRSA; [15]): 13.1%
- %GFP+ rep 2 (intracellular MRSA; [15]): 14.6%
- %GFP+ rep 3 (intracellular MRSA; [15]): 14.3%
- effect (intracellular MRSA; Yes/No call from z-scoreMRSA+): No
- hit (intracellular MRSA; [20]): No
- z-scoreMRSA+ mean (intracellular MRSA; [21]): -0.04
- z-scoreMRSA+ rep 1 (intracellular MRSA; [21]): -0.0227
- z-scoreMRSA+ rep 2 (intracellular MRSA; [21]): 0.37
- z-scoreMRSA+ rep 3 (intracellular MRSA; [21]): -0.47

SMILES: COc1cccc(-n2ncc3c(N/N=C/c4ccncc4)ncnc32)c1 [GW784752X]
- cell death (HeLa cells; [4]): No
- z-scoreHeLa mean (HeLa cells; [5]): -0.20
- z-scoreHeLa rep 1 (HeLa cells; [6]): -0.77
- z-scoreHeLa rep 2 (HeLa cells; [7]): -0.44
- z-scoreHeLa rep 3 (HeLa cells; [8]): 0.60
- cell count rep 1 (HeLa cells; [9]): 3928
- cell count rep 2 (HeLa cells; [10]): 3683
- cell count rep 3 (HeLa cells; [11]): 8225
- effect (intracellular MRSA; [4]): No
- hit (intracellular MRSA; [14]): No
- z-scoreMRSA+ mean (intracellular MRSA; PKIS compound screen): -0.71
- z-scoreMRSA+ rep 1 (intracellular MRSA; PKIS compound screen): -0.44
- z-scoreMRSA+ rep 2 (intracellular MRSA; PKIS compound screen): -0.63
- z-scoreMRSA+ rep 3 (intracellular MRSA; PKIS compound screen): -1.06
- %GFP+ rep 1 (intracellular MRSA; [15]): 11.8%
- %GFP+ rep 2 (intracellular MRSA; [15]): 11.6%
- %GFP+ rep 3 (intracellular MRSA; [15]): 12.3%

SMILES: Cc1c2ccc(N(C)c3ccnc(Nc4cccc(S(N)(=O)=O)c4)n3)cc2nn1Cc1ccccc1 [GW787226A]
- cell count rep 1 (HeLa cells; [1]): 1356
- cell count rep 2 (HeLa cells; [2]): 1496
- cell count rep 3 (HeLa cells; [3]): 1271
- cell death (HeLa cells; Yes/No call from z-scoreHeLa): No
- z-scoreHeLa mean (HeLa cells; [16]): -2.28
- z-scoreHeLa rep 1 (HeLa cells; [17]): -2.16
- z-scoreHeLa rep 2 (HeLa cells; [18]): -2.16
- z-scoreHeLa rep 3 (HeLa cells; [19]): -2.51
- %GFP+ rep 1 (intracellular MRSA; [12]): 21.6%
- %GFP+ rep 2 (intracellular MRSA; [12]): 20.6%
- %GFP+ rep 3 (intracellular MRSA; [12]): 18.5%
- effect (intracellular MRSA; Yes/No call from z-scoreMRSA+): No
- hit (intracellular MRSA; [20]): No
- z-scoreMRSA+ mean (intracellular MRSA; [21]): -0.82
- z-scoreMRSA+ rep 1 (intracellular MRSA; [21]): -0.86
- z-scoreMRSA+ rep 2 (intracellular MRSA; [21]): -0.49
- z-scoreMRSA+ rep 3 (intracellular MRSA; [21]): -1.11

SMILES: O=C(c1ccc(-c2cc(-c3c[nH]nc3-c3ccccn3)ccn2)cc1)N1CCCC1 [GW792479X]
- cell count rep 1 (HeLa cells; [1]): 29405
- cell count rep 2 (HeLa cells; [2]): 27776
- cell count rep 3 (HeLa cells; [3]): 26310
- cell death (HeLa cells; Yes/No call from z-scoreHeLa): No
- z-scoreHeLa mean (HeLa cells; [16]): 0.58
- z-scoreHeLa rep 1 (HeLa cells; [17]): -0.13
- z-scoreHeLa rep 2 (HeLa cells; [18]): 0.43
- z-scoreHeLa rep 3 (HeLa cells; [19]): 1.44
- %GFP+ rep 1 (intracellular MRSA; [12]): 20.2%
- %GFP+ rep 2 (intracellular MRSA; [12]): 21.2%
- %GFP+ rep 3 (intracellular MRSA; [12]): 21.9%
- effect (intracellular MRSA; Yes/No call from z-scoreMRSA+): No
- hit (intracellular MRSA; [20]): No
- z-scoreMRSA+ mean (intracellular MRSA; [21]): 0.35
- z-scoreMRSA+ rep 1 (intracellular MRSA; [21]): 0.38
- z-scoreMRSA+ rep 2 (intracellular MRSA; [21]): 0.49
- z-scoreMRSA+ rep 3 (intracellular MRSA; [21]): 0.18

SMILES: COc1cccc(-n2nc(C)c3c(N/N=C(\C)c4ccncc4)ncnc32)c1 [GW809885X]
- cell count rep 1 (HeLa cells; [9]): 4315
- cell count rep 2 (HeLa cells; [10]): 6939
- cell count rep 3 (HeLa cells; [11]): 7689
- cell death (HeLa cells; Yes/No call from z-scoreHeLa): No
- z-scoreHeLa mean (HeLa cells; [16]): 0.65
- z-scoreHeLa rep 1 (HeLa cells; [17]): -0.42
- z-scoreHeLa rep 2 (HeLa cells; [18]): 2.02
- z-scoreHeLa rep 3 (HeLa cells; [19]): 0.35
- %GFP+ rep 1 (intracellular MRSA; [15]): 10.1%
- %GFP+ rep 2 (intracellular MRSA; [15]): 9.2%
- %GFP+ rep 3 (intracellular MRSA; [15]): 10.0%
- effect (intracellular MRSA; Yes/No call from z-scoreMRSA+): No
- hit (intracellular MRSA; [20]): No
- z-scoreMRSA+ mean (intracellular MRSA; [21]): -1.40
- z-scoreMRSA+ rep 1 (intracellular MRSA; [21]): -0.98
- z-scoreMRSA+ rep 2 (intracellular MRSA; [21]): -1.45
- z-scoreMRSA+ rep 3 (intracellular MRSA; [21]): -1.76
